Data on three compounds can be found in patent US20160243164A1, “ANTIMICROBIAL SILVER HYDROGEL COMPOSITION FOR THE TREATMENT OF BURNS AND WOUNDS” (CELACARE TECHNOLOGIES, LLC, priority 2011, published 2016).

For data set [1] the following is noted: topical exposure for 4 hours; cited from earlier work.
Data set [2] has as its system Candida albicans ATCC 10231. The experiment in a line: microtube dilution MIC. The format is cell-based. As to conditions: ATCC10231, Example 9, 48 hrs incubation.
Description: (§1) In brief, a standard inoculum (100 μL of a 1:200 dilution of a 0.5 MacFarland turbidity standard) of each microorganism was prepared in standard growth media and added to equal volumes of two-fold serial dilutions of SC and SC-Gel. MICs were determined visually as the highest dilution of SC, or SC-Gel, that inhibited growth after incubating the mixtures overnight at 35° C., except for Candida albicans, which required 48 hrs incubation. […] The MIC dilution was converted to μg/mL by multiplying the neat drug (Ag^+) concentration by the dilution appropriate dilution factor.
In brief, a standard inoculum (100 μL of a 1:200 dilution of a 0.5 MacFarland turbidity standard) of each microorganism was prepared in standard growth media and added to equal volumes of two-fold serial dilutions of SC and SC-Gel. MICs were determined visually as the highest dilution of SC, or SC-Gel, that inhibited growth after incubating the mixtures overnight at 35° C., except for C. albicans, which required 48 hrs incubation. […] The MIC dilution was converted to μg/mL by multiplying the neat drug (Ag^+) concentration by the dilution appropriate dilution factor.
In data set [3] the test system is Escherichia coli ATCC 25922. The experiment in a line: microtube dilution MIC. The data set is classed as cell-based. As to conditions: Example 13; E. coli ATCC 25922.
Description: as §1
The method described in Example 8 for minimum inhibitory concentration (MIC) was utilized for evaluation of activity of the compositions against Staphylococcus aureus and Streptococcus pyogenes (Gram-positive cocci) and Pseudomonas aeruginosa and Escherichia coli (Gram-negative rod) organisms.
In data set [4] the test system is Pseudomonas aeruginosa ATCC 27853. As to the kind of experiment: microtube dilution MIC. The format is cell-based. Conditions: Example 13; P. aeruginosa ATCC 27853.
Description: as §1
In brief, a standard inoculum (100 μL of a 1:200 dilution of a 0.5 MacFarland turbidity standard) of each microorganism was prepared in standard growth media and added to equal volumes of two-fold serial dilutions of SC and SC-Gel. MICs were determined visually as the highest dilution of SC, or SC-Gel, that inhibited growth after incubating the mixtures overnight at 35° C., except for C. albicans, which required 48 hrs incubation. […] The MIC dilution was converted to μg/mL by multiplying the neat drug (Ag^+) concentration by the dilution appropriate dilution factor. […]

Values after ≈ are worked out from the molar mass of the structure shown.

In the case of `O=C(O)CN(CCN(CC(=O)O)CC(=O)O)CC(=O)O.[Na].[Na]` [Disodium EDTA, disodium ethylenediaminetetraacetic acid], the “reactivity in human patch test” value in data set [1] was “no reactivity”.

Consider `Clc1ccc(COC(Cn2ccnc2)c2ccc(Cl)cc2Cl)c(Cl)c1` (stereo not shown) [MZL, Miconazole], for which the MIC in data set [2] came out at 0.49 µg/mL (≈ 1.18 µM).

Consider `O=C([O-])CC(O)(CC(=O)[O-])C(=O)[O-].[Ag+].[Ag+].[Ag+]` [SC Liquid, silver citrate], for which the “Minimal Inhibitory Concentration (MIC)” value turned out to be 7.5 µg/mL in data set [3] and 11.25 µg/mL in data set [4].
